Target: Human CARM1 (PRMT4) (Homo sapiens (Human), UniProt Q86X55)
Assay: CARM1 enzyme assay on peptide substrate (3H-SAM Flashplate)
Details: Biochemical potencies, classification codes; read-out: Biochem IC50
Source text: S-adenosylmethionine (SAM), S-adenosylhomocysteine (SAH), bicine, Tween20, dimethylsulfoxide (DMSO), bovine skin gelatin (BSG), sodium butyrate and Tris(2-carboxyethyl)phosphine hydrochloride solution (TCEP) were purchased from Sigma-Aldrich at the highest level of purity possible. ^3H-SAM was purchase from American Radiolabeled Chemicals with a specific activity of 80 Ci/mmol. 384-well streptavidin Flashplates were purchased from PerkinElmer.
Peptide representative of human histone H3 residues 16-30 was synthesized with an N-terminal linker-affinity tag motif and a C-terminal amide cap by 21st Century Biochemicals. […] The sequence was Biot-Ahx-[…]-amide and contained a monomethylated arginine at position 26 (SEQ ID NO.:1).
The gene sequence encoding isoform1 containing a deletion of amino acids 539-561 was amplified subsequently and subcloned into pFastBacMam (Viva Biotech).
Recombinant baculovirus were generated according to Bac-to-Bac kit instructions (Life Technologies). Protein over-expression was accomplished by infecting exponentially growing HEK 293F cell culture at 1.3×10^6cell/ml with virus (MOI=10) in the presence of 8 mM sodium butyrate. Infections were carried out at 37° C. for 48 hours, harvested by centrifugation, and stored at −80° C. for purification.
Expressed full-length human Flag- and His-tagged CARM1 protein was purified from cell paste by anti-flag M2 affinity chromatography with resin equilibrated with buffer containing 20 mM Tris, 150 mM NaCl, 5% glycerol, pH 7.8. Column was washed with 500 mM NaCl in buffer A and Flag-CARM1-His was eluted with 200 ug/ml FLAG peptide in buffer A. Pooled fractions were dialyzed in 20 mM Tris, 150 mM NaCl, 5% glycerol and 1 mM DTT, pH 7.8.
The assays were all performed in a buffer consisting of 20 mM Bicine (pH=7.6), 1 mM TCEP, 0.005% BSG, and 0.002% Tween 20, prepared on the day of use. Compounds in 100% DMSO (1 ul) were spotted into a polypropylene 384-well V-bottom plates (Greiner) using a Platemate Plus outfitted with a 384-channel head (Thermo Scientific). DMSO (1 ul) was added to Columns 11, 12, 23, 24, rows A-H for the maximum signal control and 1 ul of SAH, a known product and inhibitor of CARM1, was added to columns 11, 12, 23, 24, rows I-P for the minimum signal control. A cocktail (40 ul) containing the CARM1 enzyme was added by Multidrop Combi (Thermo-Fisher). The compounds were allowed to incubate with CARM1 for 30 min at room temperature, then a cocktail (10 ul) containing ^3H-SAM and peptide was added to initiate the reaction (final volume=51 ul). The final concentrations of the components were as follows: CARM1 was 0.25 nM, ^3H-SAM was 30 nM, peptide was 250 nM, SAH in the minimum signal control wells was 1 mM, and the DMSO concentration was 2%. The assays were stopped by the addition of non-radiolabeled SAM (10 ul) to a final concentration of 300 uM, which dilutes the ^3H-SAM to a level where its incorporation into the peptide substrate is no longer detectable. 50 ul of the reaction in the 384-well polypropylene plate was then transferred to a 384-well Flashplate and the biotinylated peptides were allowed to bind to the streptavidin surface for at least 1 hour before being washed once with 0.1% Tween20 in a Biotek ELx405 plate washer. The plates were then read in a PerkinElmer TopCount plate reader to measure the quantity of ^3H-labeled peptide bound to the Flashplate surface, measured as disintegrations per minute (dpm) or alternatively, referred to as counts per minute (cpm).
where dpm=disintegrations per minute, cmpd=signal in assay well, and min and max are the respective minimum and maximum signal controls.
where top and bottom are the normally allowed to float, but may be fixed at 100 or 0 respectively in a 3-parameter fit. The Hill Coefficient normally allowed to float but may also be fixed at 1 in a 3-parameter fit. Y is the % inhibition and X is the compound concentration.

Human CARM1 (PRMT4), sequence (Q86X55 other isoform, or with tags, fused parts or gaps isoform Q86X55-1): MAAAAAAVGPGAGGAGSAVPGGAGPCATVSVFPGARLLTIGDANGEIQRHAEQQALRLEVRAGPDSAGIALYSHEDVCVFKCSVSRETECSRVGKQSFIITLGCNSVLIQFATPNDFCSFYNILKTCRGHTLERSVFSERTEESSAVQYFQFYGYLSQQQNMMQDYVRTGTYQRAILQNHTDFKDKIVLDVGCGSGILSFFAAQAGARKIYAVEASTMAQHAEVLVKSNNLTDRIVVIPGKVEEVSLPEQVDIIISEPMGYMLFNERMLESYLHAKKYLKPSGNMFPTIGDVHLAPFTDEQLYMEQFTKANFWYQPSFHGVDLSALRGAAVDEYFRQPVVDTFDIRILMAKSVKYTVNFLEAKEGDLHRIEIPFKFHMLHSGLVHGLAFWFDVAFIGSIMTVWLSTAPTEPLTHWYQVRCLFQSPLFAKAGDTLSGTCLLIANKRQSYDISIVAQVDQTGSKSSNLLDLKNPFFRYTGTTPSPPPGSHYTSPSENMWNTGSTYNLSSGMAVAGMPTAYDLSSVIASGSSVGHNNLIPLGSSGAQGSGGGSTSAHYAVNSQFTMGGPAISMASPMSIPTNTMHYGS

IC50	Structure (SMILES)
< 0.1 µM	CNCC(O)COc1cccc(-c2nc(-c3ccncc3)cc(N(C)C3CCOCC3)n2)c1 (stereo not drawn) [Example 1-1]
< 0.1 µM	CNCC(O)COc1cccc(-c2nc(-c3c(C)noc3C)cc(N(C)C3CCOCC3)n2)c1 (stereo not drawn) [Example 1-1a]
< 0.1 µM	CNCC(O)COc1cccc(-c2nc(NC3CNC3)c(C)c(-c3c(C)noc3C)n2)c1 (stereo not drawn) [Example 1-3]
< 0.1 µM	CNCC(O)COc1cccc(-c2cc(N(C)C3CCOCC3)nc(-c3ccncc3)n2)c1 (stereo not drawn) [Example 2-1]
< 0.1 µM	CCc1nc(-c2cccc(OCC(O)CNC)c2)cc(N(C)C2CCOCC2)n1 (stereo not drawn) [Example 2-2]
< 0.1 µM	CNCC(O)COc1ccc(Cl)c(-c2nc(NC[C@H]3COCCN3C3COC3)c(C)c(-c3c(C)noc3C)n2)c1 (stereo partly drawn) [Example 2-3]
< 0.1 µM	CNCC(O)COc1cccc(-c2nc(N[C@@H]3CCOC3)c(C)c(N3CCOCC3)n2)c1 (stereo partly drawn) [Example 3-1]
< 0.1 µM	CNCC(O)COc1cccc(-c2nc(-c3c(C)noc3C)cc(-c3c(C)noc3C)n2)c1 (stereo not drawn) [Example 3-1a]
< 0.1 µM	CNCC(O)COc1cccc(-c2nc(NC3CC(F)C3)c(C)c(-c3c(C)noc3C)n2)c1 (stereo not drawn) [Example 3-3]
> 10 µM	CNCC(O)COc1cccc(-c2nccc(NC3CCOCC3)n2)c1 (stereo not drawn) [Example 4-1]
< 0.1 µM	CNCC(O)COc1cc(Cl)cc(-c2nc(-c3c(C)noc3C)cc(-c3c(C)noc3C)n2)c1 (stereo not drawn) [Example 4-1a]
< 0.1 µM	CNCC(O)COc1cccc(-c2cc(N(C)C3CCOCC3)nc(C3CC3)n2)c1 (stereo not drawn) [Example 4-2]
< 0.1 µM	CNCC(O)COc1ccc(Cl)c(-c2nc(N[C@H]3CCN(C(=O)OC)C[C@H]3F)c(C)c(-c3c(C)noc3C)n2)c1 (stereo partly drawn) [Example 4-3]
< 0.1 µM	CNCC(O)COc1cccc(-c2nc(-c3c(C)noc3C)cc(N(C)CCC#N)n2)c1 (stereo not drawn) [Example 5-1a]
< 0.1 µM	C=C(C)c1nc(-c2cccc(OCC(O)CNC)c2)cc(N(C)C2CCOCC2)n1 (stereo not drawn) [Example 5-2]
< 0.1 µM	CNCC(O)COc1cccc(-c2nc(NC3(CO)CC3)c(C)c(-c3c(C)noc3C)n2)c1 (stereo not drawn) [Example 5-3]
< 0.1 µM	CNCC(O)COc1cccc(-c2nc(NC3CCOCC3)c(C)c(-c3c(C)noc3C)n2)c1 (stereo not drawn) [Example 6-1a]
< 0.1 µM	CNCC(O)COc1cccc(-c2cc(N(C)C3CCOCC3)nc(C(C)C)n2)c1 (stereo not drawn) [Example 6-2]
< 0.1 µM	CNCC(O)COc1ccc(Cl)c(-c2nc(NC[C@H]3CCCO3)c(C)c(-c3c(C)noc3C)n2)c1 (stereo partly drawn) [Example 6-3]

IC50	Structure (SMILES)
< 0.1 µM	CNCC(O)COc1cc(Cl)cc(-c2nc(NC3CCOCC3)cc(-c3c(C)noc3C)n2)c1 (stereo not drawn) [Example 7-1a]
< 0.1 µM	CNCC(O)COc1ccc(Cl)c(-c2nc(NC[C@@H]3CCCO3)c(C)c(-c3c(C)noc3C)n2)c1 (stereo partly drawn) [Example 7-3]
< 0.1 µM	CNCC(O)COc1cccc(-c2nc(-c3cncnc3)cc(-c3c(C)noc3C)n2)c1 (stereo not drawn) [Example 8-1a]
< 0.1 µM	CNCC(O)COc1cccc(-c2cc(N(C)C3CCOCC3)nc(N(C)C)n2)c1 (stereo not drawn) [Example 8-2]
< 0.1 µM	CNCC(O)COc1cccc(-c2nc(NC3(C(F)(F)F)CC3)c(C)c(-c3c(C)noc3C)n2)c1 (stereo not drawn) [Example 8-3]
< 0.1 µM	CNCC(O)COc1cccc(-c2nc(C3=CCCC3)cc(N(C)CCC#N)n2)c1 (stereo not drawn) [Example 9-1]
< 0.1 µM	CNCC(O)COc1cc(Cl)cc(-c2nc(Nc3cncnc3)cc(-c3c(C)noc3C)n2)c1 (stereo not drawn) [Example 9-1a]
< 0.1 µM	CNCC(O)COc1ccc(Cl)c(-c2nc(NCC3CCOCC3)c(C)c(-c3c(C)noc3C)n2)c1 (stereo not drawn) [Example 9-3]
< 0.1 µM	CNCC(O)COc1cccc(-c2nc(C3CC3)cc(N(C)C3CCOCC3)n2)c1 (stereo not drawn) [Example 10-1]
< 0.1 µM	CNCC(O)COc1cc(Cl)cc(-c2nc(N[C@@H]3CCOC3)cc(-c3c(C)noc3C)n2)c1 (stereo partly drawn) [Example 10-1a]
< 0.1 µM	CNCC(O)COc1cccc(-c2nc(N[C@H]3CCC[C@@H](O)C3)c(C)c(-c3c(C)noc3C)n2)c1 (stereo partly drawn) [Example 10-3]
< 0.1 µM	C=C(C)c1cc(N(C)C2CCOCC2)nc(-c2cccc(OCC(O)CNC)c2)n1 (stereo not drawn) [Example 11-1]
< 0.1 µM	CNCC(O)COc1cccc(-c2nc(N[C@@H]3CCOC3)cc(-c3c(C)noc3C)n2)c1 (stereo partly drawn) [Example 11-1a]
< 0.1 µM	CNCC(O)COc1cccc(-c2nc(N[C@@H]3CCOC3)c(C)c(N3CC4CN(S(C)(=O)=O)CC4C3)n2)c1 (stereo partly drawn) [Example 11-3]
< 0.1 µM	CNCC(O)COc1cc(Cl)cc(-c2nc(N[C@H]3CCOC3)cc(-c3c(C)noc3C)n2)c1 (stereo partly drawn) [Example 12-1a]
< 0.1 µM	CNCC(O)COc1cccc(-c2nc(-c3c(C)noc3C)c(C)c(N3CC(NC(=O)OC)C3)n2)c1 (stereo not drawn) [Example 12-3]
< 0.1 µM	CNCC(O)COc1cccc(-c2nc(C(C)C)cc(N(C)C3CCOCC3)n2)c1 (stereo not drawn) [Example 13-1]
< 0.1 µM	CNCC(O)COc1cccc(-c2nc(N[C@H]3CCOC3)cc(-c3c(C)noc3C)n2)c1 (stereo partly drawn) [Example 13-1a]
< 0.1 µM	CNCC(O)COc1cccc(-c2nc(-c3c(C)noc3C)c(C)c(N3CC(NC(=O)N(C)C)C3)n2)c1 (stereo not drawn) [Example 13-3]

IC50	Structure (SMILES)
< 0.1 µM	NCC(O)COc1cccc(-c2nc(N3CCOCC3)cc(N3CCOCC3)n2)c1 (stereo not drawn) [Example 14-1]
< 0.1 µM	CNCC(O)COc1cccc(-c2cc(N(C)C3CCOCC3)nc(-c3cccnc3)n2)c1 (stereo not drawn) [Example 14-2]
< 0.1 µM	CCC(=O)NC1CN(c2nc(-c3cccc(OCC(O)CNC)c3)nc(-c3c(C)noc3C)c2C)C1 (stereo not drawn) [Example 14-3]
< 0.1 µM	CNCC(O)COc1cccc(-c2nc(N(C)C)cc(N(C)C3CCOCC3)n2)c1 (stereo not drawn) [Example 15-1]
< 0.1 µM	Cc1noc(C)c1-c1cc(NC2CCOCC2)nc(-c2cccc(OC[C@@H](O)CN)c2)n1 [Example 15-1a]
< 0.1 µM	CNCC(O)COc1cccc(-c2cc(N(C)C3CCOCC3)nc(N3CCOCC3)n2)c1 (stereo not drawn) [Example 15-2]
< 0.1 µM	CNCC(O)COc1cccc(-c2nc(-c3c(C)noc3C)c(C)c(N3CCC[C@H](N(C)C(=O)OC)C3)n2)c1 (stereo partly drawn) [Example 15-3]
< 0.1 µM	Cc1noc(C)c1-c1cc(NC2CCOCC2)nc(-c2cccc(OC[C@H](O)CN)c2)n1 [Example 16-1a]
< 0.1 µM	CNCC(O)COc1cccc(-c2cc(N(C)C3CCOCC3)nc(-c3cnc4[nH]ccc4c3)n2)c1 (stereo not drawn) [Example 16-2]
< 0.1 µM	CCS(=O)(=O)N1CC2(CN(c3nc(-c4cccc(OCC(O)CNC)c4)nc(-c4c(C)noc4C)c3C)C2)C1 (stereo not drawn) [Example 16-3]
< 0.1 µM	CNC[C@H](O)COc1cccc(-c2nc(NC3CCOCC3)cc(-c3c(C)noc3C)n2)c1 [Example 17-1a]
< 0.1 µM	CNCC(O)COc1cccc(-c2nc(-c3c(C)noc3C)c(C)c(N3CCN(C(=O)OC)C(C(F)F)C3)n2)c1 (stereo not drawn) [Example 17-3]
< 0.1 µM	CNCC(O)COc1cccc(-c2nc(-c3cncnc3)cc(N(C)CCC#N)n2)c1 (stereo not drawn) [Example 18-1]
< 0.1 µM	CNC[C@@H](O)COc1cccc(-c2nc(NC3CCOCC3)cc(-c3c(C)noc3C)n2)c1 [Example 18-1a]
< 0.1 µM	CNCC(O)COc1cccc(-c2nc(Nc3nccn3C)c(C)c(-c3c(C)noc3C)n2)c1 (stereo not drawn) [Example 18-3]
< 0.1 µM	CNCC(O)COc1cccc(-c2nc(N(C)C3CCOCC3)cc(C3(C)CC3)n2)c1 (stereo not drawn) [Example 19-1]
< 0.1 µM	CNCC(O)COc1cccc(-c2nc(-c3c(C)noc3C)cc(N3CCN(C)CC3)n2)c1 (stereo not drawn) [Example 19-1a]
< 0.1 µM	CNCC(O)COc1cccc(-c2nc(N[C@H]3C[C@@](C)(OC)C3)c(C)c(-c3c(C)noc3C)n2)c1 (stereo partly drawn) [Example 19-3]
< 0.1 µM	CNCC(O)COc1cccc(-c2nc(NCCOC)cc(-c3c(C)noc3C)n2)c1 (stereo not drawn) [Example 20-1]

Reference: patent publication US20230279020A9, “CARM1 INHIBITORS AND USES THEREOF” (Epizyme, Inc., priority 2013, published 2023)
